Like-named read-outs stand apart in the source and are kept apart here.
How the values were obtained:
Acute toxicity (LD50) = assay: Acute toxicity (LD50); design: species or system mice (ICR-JCL); conditions: mouse, in vivo; for LD50 at 168 h: mice; for LD50: Test 2, route and unit inferred
Procedure: In the measurement of LD50, eight ICR-JCL female mice (5 week age) were used as one group to breed in a transparent polycage, and each drug was dissolved in olive oil and administrated by routes of intraperitoneal injection (i.p.), oral administration (p.o.) and subcutaneous injection (s.c.), to the mice at one dose, and then, their value of LD50 by Litchfield-Wilcoxon graph method is obtained after 7 days. LD50 of Chlorambucil was i.p. 20 mg./kg., p.o. 80 mg./kg., and s.c. 26 mg./kg., LD50 of the sample No. 2 in Table 1 of the present invention was i.p. greater than 3000 mg./kg., p.o. greater than 6000 mg./kg. and s.c. greater than 3000 mg./kg.. […]

[1] = system: human breast cancer cells having steroid hormone receptor; assay: Antitumor test (in vivo), implanted human breast cancer, drug in olive oil; design: species or system human (implanted in BALB/C-nu/nu mice)
[2] = system: human breast cancer cells having steroid hormone receptor; assay: as above; design: species or system human (implanted in BALB/C-nu/nu mice); conditions: oral administration
Source text: (§1) Pieces of human breast cancer cells having steroid hormone receptor were subcutaneously implanted under the arm of mice (BALB/C-nu/nu) (5 week age) to form solid tumors. After the solid tumors were established, each dispersion or solution of the active ingredient in olive oil was administrated by oral dose or intraperitoneal injection each other day for 10 times or every days for 20 times. Twenty five days from the initial administration, the tumors were excised. Efficiency of inhibition of tumor proliferation was measured from (A) each average weight of excised tumors for 10 mice (the active ingredient was administrated) and (B) each average weight of excised tumors for 10 control mice. [formula]

[3] = system: spleen, uterus and thymus; assay: Observation in autopsy; type: in vivo, mice (BALB/C-nu/nu); conditions: autopsy after administration
Source text: as §1

[4] = system: human breast cancer cells having steroid hormone receptor; assay: Test 2: antitumor effect, dispersion in Polysolvate 80, intraperitoneal injection; type: in vivo, human (implanted in BALB/C-nu/nu mice); conditions: Polysolvate 80 dispersion
Source text: as §1
In accordance with the test I, except administrating each active ingredient in a form of dispersion dispersed in Polysolvate 80 (emulsifier) by an intraperitoneal injection in the test of antitumor effect.

estrogen receptor = assay: Test 3: binding function to estrogen sensitive cells (displacement of 3H-estradiol from uterus of rabbit)
Procedure: Binding function of 3-hydroxy-1,3,5(10)-estratriene-17β-[4-{p-[bis(2-chloroethyl)amino]phenyl}butyryloxy]acetate to estrogen sensitive cells.
Estradiol labelled by tritium (^3 H) was incubated with uterus of rabbit to bind it and then, the sample was added to the system to measure the amount of free ^3 H-estradiol which was replaced by the […].

[5] = ip, single dose in olive oil, i.p., 7 days, read-out: LD50
[6] = po, oral administration, Table 1, read-out: LD50 (Oral administration)
[7] = po, single dose in olive oil, p.o., 7 days, read-out: LD50
[8] = sc, single dose in olive oil, s.c., 7 days, read-out: LD50
[9] = sc, subcutaneous administration, Table 1, read-out: LD50 (Subcutaneous administration)
[10] = subcutaneous administration, 5 mg/kg
[11] = subcutaneous administration, 10 mg/kg

Question: Which results are given for C[C@]12CC[C@@H]3c4ccc(OC(=O)c5ccccc5)cc4CC[C@H]3[C@@H]1CC[C@@H]2OC(=O)COC(=O)CCCc1ccc(N(CCCl)CCCl)cc1 [Sample No. 2, 3-benzoyloxy-1,3,5(10)-estratriene-17β-[4-{p-[bis(2-chloroethyl)amino]phenyl}butyryloxy]acetate]?
Answer: LD50 at 168 h (Acute toxicity (LD50); [5]): > 3000 mg/kg; LD50 at 168 h (Acute toxicity (LD50); [6]): > 6000 mg/kg; LD50 at 168 h (Acute toxicity (LD50); [7]): > 6000 mg/kg; LD50 at 168 h (Acute toxicity (LD50); [8]): > 3000 mg/kg; LD50 at 168 h (Acute toxicity (LD50); [9]): > 2000 mg/kg; Efficiency of inhibition [1, 10]: 90%; Survived ratio [1, 10]: 10/10; Efficiency of inhibition [1, 11]: 98%; Survived ratio [1, 11]: 10/10; Efficiency of inhibition ([2]; 10 mg/kg): 92%; Survived ratio ([2]; 10 mg/kg): 10/10; Efficiency of inhibition ([2]; 15 mg/kg): 98%; Survived ratio ([2]; 15 mg/kg): 10/10

Question: With CC(=O)Oc1ccc2c(c1)CC[C@@H]1[C@@H]2CC[C@]2(C)[C@@H](OC(=O)COC(=O)CCCc3ccc(N(CCCl)CCCl)cc3)CC[C@@H]12 [Sample No. 3, 3-acetoxy-1,3,5(10)-estratriene-17β-[4-{p-[bis(2-chloroethyl)amino]phenyl}butyryloxy]acetate] as the molecule, how does the LD50 at 168 h (Acute toxicity (LD50); [6]) read?
Answer: > 3000 mg/kg

Question: What about the LD50 at 168 h (Acute toxicity (LD50); [9]) of the same molecule?
Answer: > 2000 mg/kg

Question: What about the Efficiency of inhibition [1, 10] of the same molecule?
Answer: 93%

Question: And the Survived ratio [1, 10]?
Answer: 10/10

Question: And the Efficiency of inhibition [1, 11]?
Answer: 95%

Question: And the Survived ratio [1, 11]?
Answer: 10/10

Question: And the Efficiency of inhibition ([2]; 10 mg/kg)?
Answer: 91%

Question: And the Survived ratio ([2]; 10 mg/kg)?
Answer: 10/10

Question: What about the Efficiency of inhibition ([2]; 15 mg/kg) of the same molecule?
Answer: 93%

Question: What about the Survived ratio ([2]; 15 mg/kg) of the same molecule?
Answer: 10/10

Question: What does the source list for O=C(O)CCCc1ccc(N(CCCl)CCCl)cc1 [Sample No. 1, 4-{p-[bis(2-chloroethyl)amino]phenyl}butyric acid, reference compound]?
Answer: changes of spleen, uterus and thymus in autopsy [3]: serious changes of spleen, uterus and thymus were found; Inhibitory effect (%) ([4]; 5 mg./kg.): 30%; LD50 (Acute toxicity (LD50); ip): 20 mg/kg; LD50 at 168 h (Acute toxicity (LD50); [5]): 20 mg/kg; LD50 at 168 h (Acute toxicity (LD50); [6]): 80 mg/kg; LD50 at 168 h (Acute toxicity (LD50); [7]): 80 mg/kg; LD50 at 168 h (Acute toxicity (LD50); [8]): 26 mg/kg; LD50 at 168 h (Acute toxicity (LD50); [9]): 26 mg/kg; Efficiency of inhibition [1, 10]: 53%; Survived ratio [1, 10]: 9/10; Efficiency of inhibition [1, 11]: 71%; Survived ratio [1, 11]: 7/10; Efficiency of inhibition ([1]; subcutaneous and oral administration, 15 mg./kg. (text, about)): 50 to 70%; Efficiency of inhibition ([2]; 10 mg/kg): 55%; Survived ratio ([2]; 10 mg/kg): 8/10; Efficiency of inhibition ([2]; 15 mg/kg): 70%; Survived ratio ([2]; 15 mg/kg): 7/10

Question: With CCC(=O)Oc1ccc2c(c1)CC[C@@H]1[C@@H]2CC[C@]2(C)[C@@H](OC(=O)COC(=O)CCCc3ccc(N(CCCl)CCCl)cc3)CC[C@@H]12 [Sample No. 4, 3-propionyloxy-1,3,5(10)-estratriene-17β-[4-{p-[bis(2-chloroethyl)amino]phenyl}butyryloxy]acetate] as the molecule, how does the LD50 at 168 h (Acute toxicity (LD50); [6]) read?
Answer: > 3000 mg/kg

Question: What about the LD50 at 168 h (Acute toxicity (LD50); [9]) of the same molecule?
Answer: > 2000 mg/kg

Question: What about the Efficiency of inhibition [1, 10] of the same molecule?
Answer: 92%

Question: What about the Survived ratio [1, 10] of the same molecule?
Answer: 10/10

Question: And the Efficiency of inhibition [1, 11]?
Answer: 94%

Question: And the Survived ratio [1, 11]?
Answer: 10/10

Question: And the Efficiency of inhibition ([2]; 10 mg/kg)?
Answer: 93%

Question: And the Survived ratio ([2]; 10 mg/kg)?
Answer: 10/10

Question: And the Efficiency of inhibition ([2]; 15 mg/kg)?
Answer: 97%

Question: And the Survived ratio ([2]; 15 mg/kg)?
Answer: 10/10

Question: With C[C@]12CC[C@@H]3c4ccc(O)cc4CC[C@H]3[C@@H]1CC[C@@H]2OC(=O)COC(=O)CCCc1ccc(N(CCCl)CCCl)cc1 [3-hydroxy-1,3,5(10)-estratriene-17β-[4-{p-[bis(2-chloroethyl)amino]phenyl}butyryloxy]acetate] as the molecule, how does the “Inhibitory effect (%)” value ([4]; 0.5 mg./kg.) read?
Answer: 91%

Question: And the “Inhibitory effect (%)” value ([4]; 5 mg./kg.)?
Answer: 97%

Question: What about the “binding function to estrogen receptor” value (estrogen receptor) of the same molecule?
Answer: has the binding function to estrogen receptor

Question: And the “free 3H-estradiol (displacement)” value (estrogen receptor; compared with estradiol)?
Answer: free ^3 H-estradiol was increased as the same with estradiol itself

Question: What about the LD50 (Acute toxicity (LD50); ip) of the same molecule?
Answer: > 1000 mg/kg

Source: patent US4261910A, “Process for the preparation of Chlorambucil derivatives” (Kureha Kagaku Kogyo Kabushiki Kaisha, priority 1978, dated 1981)
